Test results taken from patent US6825191B2, “Benzodiazepine derivatives” (Ajinomoto Co., Inc., priority 2000, dated 2004).

Tests used:
[1] = target: T1, human thrombin (Homo sapiens, UniProt P00734); experiment: Determination of thrombin-inhibiting activity (chromogenic substrate S-2238, initial rate); assay type: biochemical; settings: negative logarithm of concentration inhibiting 50% of initial rate; tris hydrochloride buffer pH 8.4, room temperature; read-out: Thrombin-inhibiting activity (pIC50) (converted)
T1 construct: solution of human thrombin (a product of SIGMA Co.); purchased SIGMA Co
Experimental: Determination of Thrombin-inhibiting Activity
130 μL of 100 mM tris hydrochloride buffer adjusted to pH 8.4 was added to 10 μl of an aqueous solution of a test compound. Then 10 μl of a solution of human thrombin (a product of SIGMA Co.) adjusted to 2 units/ml with tris hydrochloride buffer of pH 8.4 was added to the resultant mixture. After the incubation at room temperature for 10 minutes, 50 μl of a solution of D-phenylalanine-L-pipecolyl-L-arginine-P-nitroanilide dihydrochloride (S-2238; a product of Daiichi Kagaku Yakuhin Co.) adjusted to 0.4 mM with tris hydrochloride buffer of pH 8.4 was added thereto. The absorbance was determined and then the initial reaction rate was determined. A control was prepared in the same manner as that described above except that the solution of the compound to be tested was replaced with 10 μl of tris hydrochloride buffer adjusted to pH 8.4. The absorbance was determined with MICROPLATE READER Model 3550-UV (a product of BIO RAD) at a wave length of 405 nm at intervals of 15 seconds for 16 minutes. The negative logarithm (pIC50) of a concentration of the test compound which inhibits 50% of the activity (initial rate) of the thrombin in the absence of the test compound was determined, and employed as the index of the activity of inhibiting thrombin.

[2] = target: T2, activated human blood coagulation factor X (Homo sapiens, UniProt P00742); experiment: Determination of activity of inhibiting the activated blood-coagulation factor X (chromogenic substrate, initial rate); assay type: biochemical; settings: negative logarithm of concentration inhibiting 50% of initial rate; tris hydrochloride buffer pH 8.4, room temperature; read-out: Activity of inhibiting activated blood coagulation factor X (pIC50) (converted)
T2 construct: purchased Enzyme Research Co
Experimental: Determination of Activity of inhibiting the Activated Blood-coagulation Factor X
130 μl of 100 mM tris hydrochloride buffer adjusted to pH 8.4 was added to 10 μl of an aqueous solution of a compound to be tested. Then 10 μl of a 0.5 unit/ml solution of activated human blood coagulation factor X (a product of Enzyme Research Co.) in tris hydrochloride buffer of pH 8.4 was added to the resultant mixture. After the incubation at room temperature for 10 minutes, 50 μl of a solution of N-benzoyl-L-isoleucyl-L-glutamyl-glycyl-L-arginyl-P-nitroanilide hydrochloride (a product of Peptide Institute Inc.) adjusted to 0.8 mM with tris hydrochloride (pH 8.4) was added thereto. The a absorbance was determined and then the initial reaction rate was determined. A control was prepared in the same manner as that described above except that the solution of the compound to be tested was replaced with 10 μl of tris hydrochloride buffer adjusted to pH 8.4. The absorbance was determined with MICROPLATE READER Model 3550-UV (a product of BIO RAD) at a wave length of 405 nm at intervals of 15 seconds for 16 minutes.

[3] = system: blood plasma; experiment: Determination of blood anticoagulating activity by prothrombin time (PT) determination method; assay type: biochemical, human; settings: negative logarithm of concentration which elongated PT of the control to twice as long; blood plasma of healthy people
Experimental: Determination of Blood Anticoagulating Activity
The blood anticoagulating activity was determined by a prothrombin time (PT) determination method. The PT was determined as follows: The blood was taken from healthy people. 3.8% aqueous trisodium citrate solution was added to the blood in a volume ratio of 1:10. The blood plasma was separated by the centrifugation. 5 μl of DMSO solution containing a test compound was added to 45 μl of the blood plasma. After the incubation apt room temperature for 2 minutes, a test tube containing the blood plasma solution was placed in Sysmex CA-3000 fully automatic blood coagulation determination device (a product of Toa Medical Electronics Co., Ltd), and incubated at 37° C. for 3 minutes. 100 μl of Sysmex PT II (rabbit brain tissue thromboplastin, 13.2 mM calcium chloride; a product of Toa Medical Electronics Co., Ltd) was fed into the test tube. PT was automatically determined with the device. A sample containing 5 μl of DMSO in place of the solution of the test compound was used as the control. The negative logarithm (pPT2) of the concentration of the test compound which elongated PT of the control to the twice as long was determined, and employed as the index of the blood anticoagulating activity.

T2 sequence (P00742 235-488 limits assumed): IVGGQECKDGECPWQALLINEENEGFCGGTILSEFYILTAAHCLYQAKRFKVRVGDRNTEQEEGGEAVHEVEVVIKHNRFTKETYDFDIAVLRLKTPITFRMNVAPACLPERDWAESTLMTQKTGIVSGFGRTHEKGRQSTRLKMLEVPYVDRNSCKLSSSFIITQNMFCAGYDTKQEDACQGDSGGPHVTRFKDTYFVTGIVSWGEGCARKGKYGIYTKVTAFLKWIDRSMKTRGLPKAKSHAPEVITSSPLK
T2 sequence (P00742 41-179 partner limits assumed): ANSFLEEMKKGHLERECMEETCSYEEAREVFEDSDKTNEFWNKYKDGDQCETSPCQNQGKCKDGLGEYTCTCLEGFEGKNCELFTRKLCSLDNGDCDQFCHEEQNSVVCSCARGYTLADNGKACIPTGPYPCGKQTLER

IC50 [1] [nM] | IC50 [2] [nM] | SMILES | Human blood anticoagulating activity (pPT2) [3]
63100 | 39.8 | O=C(CCc1ccc2c(c1)N(Cc1ccc(C(=O)N3CC=CC3)cc1)C(=O)CN(C(=O)c1ccc(Cl)cc1)C2)N1CCOCC1 [Compd. of Ex. 68, 4-(4-chlorobenzoyl)-8-(3-morpholine-4-yl-3-oxopropyl)-1-[4-(2,5-dihydro-1H-pyrrol-1-ylcarbonyl)benzyl]-1,3,4,5-tetrahydrobenzo[e][1,4]diazepin-2-on] | 5.2
> 100000 | 50.1 | CN1CCN=C1c1ccc(CN2C(=O)CN(C(=O)c3ccc(Cl)cc3)Cc3c(Cl)cccc32)cc1.O=C(O)C(F)(F)F [Compd. of Ex. 122, 6-chloro-4-(4-chlorobenzoyl)-1-[4-(1-methyl-4,5-dihydro-1H-imidazol-2-yl)benzyl]-1,3,4,5-tetrahydrobenzo[e][1,4]-diazepin-2-on trifluoroacetate] | 5.6
39800 | 7.94 | O=C(c1ccc(CN2C(=O)CN(C(=O)c3ccc(Cl)cc3)Cc3ccc(CCP(=O)(O)O)cc32)cc1)N1CC=CC1 [Compd. of Ex. 73, [2-(4-(4-chlorobenzoyl)-2-oxo-1-[4-(2,5-dihydro-1H-pyrrol-1-ylcarbonyl)benzyl]-2,3,4,5-tetrahydro-1H-benzo[e][1,4]-diazepin-8-yl)ethyl]phosphonic acid] | 4.9
79400 | 39.8 | O=C(c1ccc(CN2C(=O)CN(C(=O)c3ccc(Cl)cc3)Cc3ccc(CCCO)cc32)cc1)N1CC=CC1 [Compd. of Ex. 90] | 5.0
